Values joined by “and” are separate entries in the source; they are usually repeats but may differ in a detail not shown here. Equal values may be shown once.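 Briefly, cells in 96-well plates were exposed to five compound concentrations for 48 h, and endpoints were estimated by linear interpolation. GI50: concentration for 50% inhibition of growth. TGI marks complete inhibition of growth.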
Assays:
Assay in all cases: NCI tumour cell line growth inhibition, 48 h
HOP-62 NSCLC = system: HOP-62 NSCLC
SNB-19 CNS = system: SNB-19 CNS
HCT-15 colon = system: HCT-15 colon
MDA-MB-435 = system: MDA-MB-435
MDA-MB-231 breast = system: MDA-MB-231 breast
MOLT-4 leukemia = system: MOLT-4 leukemia
MCF7 breast = system: MCF7 breast
UACC-257 melanoma = system: UACC-257 melanoma
A498 renal = system: A498 renal
NCI-H226 lung = system: NCI-H226 lung

| SMILES | TGI (HOP-62 NSCLC) | TGI (SNB-19 CNS) | TGI (HCT-15 colon) | TGI (MDA-MB-435) | TGI (MDA-MB-231 breast) | TGI (MOLT-4 leukemia) | TGI (MCF7 breast) | TGI (UACC-257 melanoma) | TGI (A498 renal) | TGI (NCI-H226 lung) | GI50 (HOP-62 NSCLC) | GI50 (SNB-19 CNS) | GI50 (MDA-MB-435) | GI50 (MOLT-4 leukemia) | GI50 (UACC-257 melanoma) |
| --- | --- | --- | --- | --- | --- | --- | --- | --- | --- | --- | --- | --- | --- | --- | --- |
| CC(C)(C)OC(=O)N1[C@@H]2Cc3ccc(N)cc3[C@@]1(C)c1ccccc12 | > 100 µM | > 100 µM | 32.9 µM | 33.3 µM | 75.3 µM | 48.5 µM | > 100 µM | 78.2 µM | 79.6 µM |  |  |  |  |  |  |
| O=C1CS[C@@](CC(c2ccc(Cl)cc2)c2ccc(Cl)cc2)(c2ccc(Cl)cc2)N1 | 82 µM | > 100 µM | > 100 µM | > 100 µM |  | 45 µM | 26.4 µM | > 100 µM | 45.8 µM | 42.2 µM |  |  |  |  |  |
| COc1ccc(CNc2nc3cc(C(F)(F)F)ccc3nc2-c2ccccc2)cc1OC | > 100 µM | > 100 µM | > 100 µM | > 100 µM | > 100 µM | > 100 µM | 42.5 µM | > 100 µM |  |  |  |  |  |  |  |
| Cc1c2ccccc2c(C)n2c1nc1ccccc12 | 36 µM | 68.3 µM | 65.7 µM | 19.1 µM |  | > 100 µM | 13.3 µM | 76.4 µM | 25.5 µM | 37.8 µM |  |  |  |  |  |
| CCOc1ccc(/C=C2\NC(=S)N(/C=C3\C(=O)Oc4ccccc4C3=O)C2=O)cc1 | 61.9 µM | 59.8 µM | 49.9 µM | 78.3 µM | 50.7 µM | 51.2 µM | 63.1 µM | 75.8 µM |  | 45.7 µM |  |  |  |  |  |
| c1csc(-c2ccsc2-c2ccsc2)c1 | > 100 µM |  | > 100 µM | > 100 µM | > 100 µM | > 100 µM | > 100 µM | > 100 µM | > 100 µM |  |  |  |  |  |  |
| COc1ccc2[nH]c(C(=O)N3CC(CCl)c4c3cc(N)c3ccccc43)cc2c1 (centres undefined) | 0.0358 µM | < 0.0386 µM | 1.15 µM |  |  | < 0.0153 µM | 0.0353 µM |  | 0.0399 µM | < 0.0225 µM |  |  |  |  |  |
| N[C@H](CCC(=O)NCP(=O)(O)O)C(=O)O | > 100 µM | > 100 µM | > 100 µM | > 100 µM | > 100 µM | > 100 µM | > 100 µM | > 100 µM | > 100 µM |  |  |  |  |  |  |
| CC(=O)NC1(C(=O)N[C@@H](Cc2ccccc2)C(=O)NC2CCCCC2)Cc2ccc3ccccc3c2-c2c(ccc3ccccc23)C1 | > 100 µM | > 100 µM | > 100 µM | > 100 µM |  |  | > 100 µM | 10.8 µM and 75.5 µM | > 100 µM |  | 12.2 µM and 57.3 µM | 11 µM and 28.8 µM | 3.74 µM and 9.85 µM | 1.91 µM and 4.43 µM | 2 µM and 5.32 µM |
| COC(=O)c1ccccc1C1=C([N+](=O)[O-])C(c2ccccc2)C(C#N)=C(N)O1 (centres undefined) | > 100 µM | > 100 µM | 46.6 µM | > 100 µM | > 100 µM | > 100 µM |  | > 100 µM |  | > 100 µM |  |  |  |  |  |
| C[n+]1c2ccccc2c(/C=N\NS(=O)(=O)c2ccc(Cl)cc2)c2ccccc21 | > 100 µM | > 100 µM | > 100 µM |  |  | > 100 µM |  | > 100 µM | > 100 µM | > 100 µM |  |  |  |  |  |
| CN[C@@H](C)[C@@H](O)c1ccccc1 | > 100 µM | > 100 µM | > 100 µM | > 100 µM | > 10 µM | > 100 µM | > 100 µM | > 100 µM |  | > 100 µM |  |  |  |  |  |
| O=C(O)CCc1ccc2c(c1)CC1(Cc3ccccc3C1)C2 | > 100 µM |  | > 100 µM | > 100 µM | > 100 µM | > 100 µM | > 100 µM | > 100 µM | > 100 µM | > 100 µM |  |  |  |  |  |
| Nc1ccc2ccc(-c3ccc[nH]3)nc2n1 | > 100 µM | > 100 µM | > 100 µM | > 100 µM | > 100 µM |  | > 100 µM | > 100 µM | > 100 µM | > 100 µM |  |  |  |  |  |
| N=c1oc2ccccc2cc1-c1nc2ccccc2c(=O)[nH]1 | 69.9 µM | > 100 µM | > 100 µM | > 100 µM | > 100 µM | > 100 µM | > 100 µM | > 100 µM |  | > 100 µM |  |  |  |  |  |
| COC(=O)NC(Cc1ccccc1)NC(C)=O (centres undefined) | > 100 µM | > 100 µM | > 100 µM | > 100 µM | > 100 µM | > 100 µM | > 100 µM | > 100 µM | > 100 µM |  |  |  |  |  |  |
| O=[N+]([O-])c1ccc(N2N=C(c3ccc4ccccc4c3O)CC2c2ccc(Cl)cc2)c([N+](=O)[O-])c1 (centres undefined) | > 100 µM |  | > 100 µM | 33 µM | > 100 µM | 49 µM | > 100 µM | > 100 µM | > 100 µM | > 100 µM |  |  |  |  |  |
| CCOC(=O)C(=O)CC(=O)C1=C(c2ccccc2OC)CC(c2cccs2)=CC1=O | > 100 µM | > 100 µM | > 100 µM | > 100 µM | > 100 µM | > 100 µM |  | > 100 µM | > 100 µM | > 100 µM |  |  |  |  |  |
| CC12ON(P(=O)(c3ccccc3)c3ccccc3)C(C)(c3ccccc31)c1ccccc12 | > 100 µM | > 100 µM | > 100 µM | > 100 µM | > 100 µM | > 100 µM |  | > 100 µM |  | > 100 µM |  |  |  |  |  |
| CCC(=O)/C(=C\I)c1ccccc1 | 39.7 µM | 29 µM | 3.37 µM | 10.4 µM | 3.29 µM | 7.08 µM |  | 16.7 µM | 32.1 µM | 56.7 µM |  |  |  |  |  |
| COc1c(C)c(C/C=C(\C)CC/C=C(\C)CC/C=C(\C)CCC=C(C)C)c(OC)c2ccccc12 | > 100 µM | > 100 µM | > 100 µM | > 100 µM | > 100 µM | > 100 µM | > 100 µM | > 100 µM |  |  |  |  |  |  |  |
| O=C(c1ccc(O)c([N+](=O)[O-])c1)c1ccc(O)c([N+](=O)[O-])c1 | > 100 µM | > 100 µM | > 100 µM | 70.1 µM | > 100 µM |  | > 100 µM | > 100 µM | > 100 µM | > 100 µM |  |  |  |  |  |
| COc1cccc(-c2nccc3c(OCc4ccccc4)c(OC)c(OC)cc23)c1 | > 100 µM | > 100 µM | > 100 µM |  |  | > 100 µM |  | > 100 µM | > 100 µM | > 100 µM |  |  |  |  |  |

— PubChem BioAssay (NCI)
